Here are results for 5 compounds from patent publication US12721928B1, “Active agent-eluting hemostatic agents for prevention of surgical site infection” (priority 2020, dated 2026).

The test system of one data set is cultured cells. As to conditions: EDC up to 10 mg/mL; cited from earlier work.
Data set [1] can be described thus: FTIR of antibiotic released from hemostatic agents (structural integrity). As to conditions: all released samples.
Text: FTIR spectra were collected on a Nicolet Is10 to ensure structural integrity of antibiotics released from the hemostatic agents. Released samples were scanned in the range between 4000 and 800 cm^−1.
A further data set relates to S. aureus. Kind of data set: Modified Kirby-Bauer disk diffusion test. The data set is classed as cell-based, Staphylococcus aureus. As to conditions: filter paper on S. aureus coated agar. (Agar diffusion results depend on both activity and mobility in agar.)
The subject of a further data set is mammalian cells. As to conditions: cited from earlier work.

Read-outs that look alike come from different tables or passages of the source.

Experimental for S. aureus: Inhibition of S. Aureus 25293 or E. Coli (Migula) Castellani and Chalmers by antibiotic-eluting hemostatic agents was determined through modified Kirby-Bauer disk diffusion tests and microdilution assays. Throughout all Kirby-Bauer tests, agar plates were formed using tryptic soy agar. The plates were subsequently coated with the appropriate strain within its exponential growth phase at a concentration of 10^8 CFU/mL. Filter papers that had been incubated with the hemostatic agents, gelatin, or pure antibiotic equivalent to 24-hour release concentrations for two hours were then immediately placed upon the plates. Zones of inhibition were measured and photographed following 16-18 hours of incubation at 37° C.

On to `CCN=C=NCCCN(C)C` [EDC, 1-ethyl-3-(3-dimethylaminopropyl) carbodiimide], for which, in the data set on cultured cells, the “cytotoxicity to cultured cells” value is “negligibly cytotoxic”.
For `CC(C)(O/N=C(\C(=O)N[C@@H]1C(=O)N2C(C(=O)[O-])=C(C[n+]3ccccc3)CS[C@H]12)c1csc(N)n1)C(=O)O` [ceftazidime], the “basic chemical stability of released antibiotic” value in data set [1] was “confirmed”.
For `CCCCCCCCCC(=O)N[C@@H](Cc1c[nH]c2ccccc12)C(=O)N[C@H](CC(N)=O)C(=O)N[C@@H](CC(=O)O)C(=O)N[C@@H]1C(=O)NCC(=O)N[C@@H](CCCN)C(=O)N[C@@H](CC(=O)O)C(=O)N[C@H](C)C(=O)N[C@@H](CC(=O)O)C(=O)NCC(=O)N[C@H](CO)C(=O)N[C@@H]([C@H](C)CC(=O)O)C(=O)N[C@@H](CC(=O)c2ccccc2N)C(=O)O[C@@H]1C` [daptomycin], the “zone of inhibition (ZOI)” value in the data set on S. aureus is listed as “clear zone of inhibition”.
In the case of `CN[C@H](CC(C)C)C(=O)N[C@H]1C(=O)N[C@@H](CC(N)=O)C(=O)N[C@H]2C(=O)N[C@H]3C(=O)N[C@H](C(=O)N[C@H](C(=O)O)c4cc(O)cc(O)c4-c4cc3ccc4O)[C@H](O)c3ccc(c(Cl)c3)Oc3cc2cc(c3O[C@@H]2O[C@H](CO)[C@@H](O)[C@H](O)[C@H]2O[C@H]2C[C@](C)(N)[C@H](O)[C@H](C)O2)Oc2ccc(cc2Cl)[C@H]1O` [vancomycin], in the data set with S. aureus, the “zone of inhibition (ZOI)” value is recorded as “clear zone of inhibition”. Besides, in the data set with mammalian cells (each component separately), the “toxicity to mammalian cells” value is “minimally toxic”. In addition, in data set [1], the “basic chemical stability of released antibiotic” value is recorded as “confirmed”.
With gelatin, the “toxicity to mammalian cells” value in the data set with mammalian cells is given as “minimally toxic”.
